# Assay results: paper PMC5218480 (PLoS ONE, 2017)
# Tested on: MV-4-11 cells
# Test: Gene expression microarray analysis (Affymetrix PrimeView) and GSEA
# Type: cell-based, human
# Parameters: RFU PODN (11730768_x_at) / Fold change /veh PODN (11730768_x_at) / RFU LINC00158 (11744669_a_at) / Fold change /veh LINC00158 (11744669_a_at) / RFU DUSP10 (11751237_a_at) / Fold change /veh DUSP10 (11751237_a_at) / RFU ID3 (11757404_x_at) / Fold change /veh ID3 (11757404_x_at) / RFU PLEKHG5 (11737974_s_at) / Fold change /veh PLEKHG5 (11737974_s_at) / RFU LRRC4B (11730491_at) / Fold change /veh LRRC4B (11730491_at) / RFU GIMAP4 (11747438_a_at) / Fold change /veh GIMAP4 (11747438_a_at) / RFU KRT8 (11758183_x_at) / Fold change /veh KRT8 (11758183_x_at) / RFU CNN1 (11734310_a_at) / Fold change /veh CNN1 (11734310_a_at) / RFU VPS37D (11726825_at) / Fold change /veh VPS37D (11726825_at) / RFU C10orf10 (11716522_x_at) / Fold change /veh C10orf10 (11716522_x_at) / RFU KIR2DL2 /// KIR2DL4 /// KIR2DL5A /// KIR2DL5B /// KIR2DS1 /// KIR2DS2 /// KIR2DS3 /// KIR2DS4 /// KIR3DL3 /// KIR3DL3 /// KIR3DS1 (11738374_at) / Fold change /veh KIR2DL2 /// KIR2DL4 /// KIR2DL5A /// KIR2DL5B /// KIR2DS1 /// KIR2DS2 /// KIR2DS3 /// KIR2DS4 /// KIR3DL3 /// KIR3DL3 /// KIR3DS1 (11738374_at) / RFU C1QL1 (11718748_at) / Fold change /veh C1QL1 (11718748_at) / RFU TMPRSS4 (11747572_a_at) / Fold change /veh TMPRSS4 (11747572_a_at) / RFU HAMP (11756126_x_at) / Fold change /veh HAMP (11756126_x_at) / RFU RNFT2 (11725882_a_at) / Fold change /veh RNFT2 (11725882_a_at) / RFU NR4A2 (11747474_a_at) / Fold change /veh NR4A2 (11747474_a_at) / RFU ABCC12 (11746883_a_at) / Fold change /veh ABCC12 (11746883_a_at) / RFU TMEM136 (11760407_x_at) / Fold change /veh TMEM136 (11760407_x_at) / RFU CLDN22 /// WWC2 (11732394_at) / Fold change /veh CLDN22 /// WWC2 (11732394_at) / RFU HLA-DPB1 (11760878_x_at) / Fold change /veh HLA-DPB1 (11760878_x_at) / RFU SPINT1 (11716480_a_at) / Fold change /veh SPINT1 (11716480_a_at) / RFU GAP43 (11754022_s_at) / Fold change /veh GAP43 (11754022_s_at) / RFU A4GNT (11735810_at) / Fold change /veh A4GNT (11735810_at) / RFU PRB3 (11715151_x_at) / Fold change /veh PRB3 (11715151_x_at) / RFU TUBB4B (11761932_at) / Fold change /veh TUBB4B (11761932_at) / RFU CAPN14 (11732068_a_at) / Fold change /veh CAPN14 (11732068_a_at) / RFU TMCC2 (11721928_a_at) / Fold change /veh TMCC2 (11721928_a_at) / RFU IRGQ (11745062_a_at) / Fold change /veh IRGQ (11745062_a_at) / RFU FAM174B (11720279_a_at) / Fold change /veh FAM174B (11720279_a_at) / RFU TMPRSS4 (11748680_a_at) / Fold change /veh TMPRSS4 (11748680_a_at) / RFU FAM212B (11763350_a_at) / Fold change /veh FAM212B (11763350_a_at) / RFU PLEKHG5 (11743358_a_at) / Fold change /veh PLEKHG5 (11743358_a_at) / RFU ZSCAN30 (11745921_a_at) / Fold change /veh ZSCAN30 (11745921_a_at) / RFU CMKLR1 (11741424_a_at) / Fold change /veh CMKLR1 (11741424_a_at) / RFU LOC101060620 /// MAPK8IP1 (11723275_at) / Fold change /veh LOC101060620 /// MAPK8IP1 (11723275_at) / RFU SPTSSB (11747773_x_at) / Fold change /veh SPTSSB (11747773_x_at) / RFU PRSS12 (11739890_at) / Fold change /veh PRSS12 (11739890_at) / RFU BIN1 (11741810_x_at) / Fold change /veh BIN1 (11741810_x_at) / RFU WNT11 (11732464_a_at) / Fold change /veh WNT11 (11732464_a_at) / RFU C10orf10 (11716521_a_at) / Fold change /veh C10orf10 (11716521_a_at) / RFU C5orf56 (11738089_at) / Fold change /veh C5orf56 (11738089_at) / RFU CYB561 (11721691_x_at) / Fold change /veh CYB561 (11721691_x_at) / RFU ANKRD19P (11752326_a_at) / Fold change /veh ANKRD19P (11752326_a_at) / RFU OR2T12 /// OR2T33 /// OR2T8 (11738714_s_at) / Fold change /veh OR2T12 /// OR2T33 /// OR2T8 (11738714_s_at) / RFU VCAN (11748164_a_at) / Fold change /veh VCAN (11748164_a_at) / RFU JSRP1 (11732532_at) / Fold change /veh JSRP1 (11732532_at) / RFU KRTAP10-11 (11738290_x_at) / Fold change /veh KRTAP10-11 (11738290_x_at) / RFU MYO3A (11730013_a_at) / Fold change /veh MYO3A (11730013_a_at) / RFU EBF3 (11725865_a_at) / Fold change /veh EBF3 (11725865_a_at) / RFU CAMK2N1 (11719241_x_at) / Fold change /veh CAMK2N1 (11719241_x_at) / RFU C5orf56 (11738088_a_at) / Fold change /veh C5orf56 (11738088_a_at) / RFU OLFML3 (11715873_a_at) / Fold change /veh OLFML3 (11715873_a_at) / RFU LOC100653217 /// NTM (11731650_a_at) / Fold change /veh LOC100653217 /// NTM (11731650_a_at) / RFU MAPK11 (11762145_a_at) / Fold change /veh MAPK11 (11762145_a_at) / RFU FIZ1 (11724087_x_at) / Fold change /veh FIZ1 (11724087_x_at) / RFU OASL (11726364_x_at) / Fold change /veh OASL (11726364_x_at) / RFU SOX15 (11748057_x_at) / Fold change /veh SOX15 (11748057_x_at) / RFU CD79A (11719716_a_at) / Fold change /veh CD79A (11719716_a_at) / RFU HIST1H1D (11736915_at) / Fold change /veh HIST1H1D (11736915_at) / RFU CASKIN2 (11723855_a_at) / Fold change /veh CASKIN2 (11723855_a_at) / RFU LOC730098 (11760151_x_at) / Fold change /veh LOC730098 (11760151_x_at) / RFU OR4N2 (11742367_at) / Fold change /veh OR4N2 (11742367_at) / RFU PRRT2 (11749266_a_at) / Fold change /veh PRRT2 (11749266_a_at) / RFU SNX32 (11753110_a_at) / Fold change /veh SNX32 (11753110_a_at) / RFU CDHR5 (11726645_a_at) / Fold change /veh CDHR5 (11726645_a_at) / RFU RCAN1 (11760418_a_at) / Fold change /veh RCAN1 (11760418_a_at) / RFU FAM167A (11723789_a_at) / Fold change /veh FAM167A (11723789_a_at) / RFU FAM26E (11764081_at) / Fold change /veh FAM26E (11764081_at) / RFU ISYNA1 (11749810_s_at) / Fold change /veh ISYNA1 (11749810_s_at) / RFU ACY1 (11761880_at) / Fold change /veh ACY1 (11761880_at) / RFU 11764098_at / Fold change /veh 11764098_at / RFU SAMD14 (11745864_x_at) / Fold change /veh SAMD14 (11745864_x_at) / RFU NPB (11741838_a_at) / Fold change /veh NPB (11741838_a_at) / RFU TMPRSS6 (11731388_a_at) / Fold change /veh TMPRSS6 (11731388_a_at) / RFU KRTAP10-2 (11738614_at) / Fold change /veh KRTAP10-2 (11738614_at) / RFU ARHGAP8 /// PRR5-ARHGAP8 (11727945_x_at) / Fold change /veh ARHGAP8 /// PRR5-ARHGAP8 (11727945_x_at) / RFU KRTAP5-7 /// NADSYN1 (11734609_at) / Fold change /veh KRTAP5-7 /// NADSYN1 (11734609_at) / RFU RASL12 (11751679_a_at) / Fold change /veh RASL12 (11751679_a_at) / RFU CDKN2B (11736163_a_at) / Fold change /veh CDKN2B (11736163_a_at) / RFU PRF1 (11729649_at) / Fold change /veh PRF1 (11729649_at) / RFU, ZNF638 /// ZNF638-IT1 / Fold change vs veh, ZNF638 /// ZNF638-IT1 / RFU, PANK3 / Fold change vs veh, PANK3 / RFU, SH3YL1 / Fold change vs veh, SH3YL1 / RFU, ZEB2 / Fold change vs veh, ZEB2 / RFU, NRIP1 / Fold change vs veh, NRIP1 / RFU, PTTG1IP / Fold change vs veh, PTTG1IP / RFU, CAPN2 / Fold change vs veh, CAPN2 / RFU, MED14 / Fold change vs veh, MED14 / RFU, SNORA58 / Fold change vs veh, SNORA58 / RFU, C1orf63 / Fold change vs veh, C1orf63 / RFU, LRRFIP1 / Fold change vs veh, LRRFIP1 / RFU, NDUFAF7 / Fold change vs veh, NDUFAF7 / RFU, SLC12A2 / Fold change vs veh, SLC12A2 / RFU, IBTK / Fold change vs veh, IBTK / RFU, ESF1 / Fold change vs veh, ESF1 / Fold change vs veh, TMEM50B / RFU, TAOK1 / Fold change vs veh, TAOK1 / RFU, ACBD3 / Fold change vs veh, ACBD3 / RFU, TMA16 / Fold change vs veh, TMA16 / RFU, RWDD3 / Fold change vs veh, RWDD3 / RFU, BCAT1 / Fold change vs veh, BCAT1 / RFU, EDEM3 / Fold change vs veh, EDEM3 / RFU, TMEM33 / Fold change vs veh, TMEM33 / RFU, WDR75 / Fold change vs veh, WDR75 / RFU, AHCTF1 / Fold change vs veh, AHCTF1 / RFU, TFRC / Fold change vs veh, TFRC / RFU, ZDHHC17 / Fold change vs veh, ZDHHC17 / RFU, NOM1 / Fold change vs veh, NOM1 / RFU, ARL8B / Fold change vs veh, ARL8B / RFU, ZBTB11 / Fold change vs veh, ZBTB11 / RFU, TAMM41 / Fold change vs veh, TAMM41 / RFU, KIAA1704 /// LOC100996395 / Fold change vs veh, KIAA1704 /// LOC100996395 / RFU, ING1 / Fold change vs veh, ING1 / RFU, TRMT61B / Fold change vs veh, TRMT61B / RFU, FUBP3 / Fold change vs veh, FUBP3 / RFU, TP53 / Fold change vs veh, TP53 / RFU, TNKS2 / Fold change vs veh, TNKS2 / RFU, ZFP14 / Fold change vs veh, ZFP14 / RFU, ACTR2 / Fold change vs veh, ACTR2 / RFU, PPP3R1 / Fold change vs veh, PPP3R1 / RFU, PIK3R1 / Fold change vs veh, PIK3R1 / RFU, HNRNPA1 / Fold change vs veh, HNRNPA1 / RFU, RNF170 / Fold change vs veh, RNF170 / RFU, ZNF28 / Fold change vs veh, ZNF28 / RFU, RNGTT / Fold change vs veh, RNGTT / RFU, OGT / Fold change vs veh, OGT / RFU, BRD1 / Fold change vs veh, BRD1 / RFU, MARS / Fold change vs veh, MARS / RFU, ZNF655 / Fold change vs veh, ZNF655 / RFU, FAHD1 / Fold change vs veh, FAHD1 / RFU, BDP1 / Fold change vs veh, BDP1 / RFU, LRRCC1 / Fold change vs veh, LRRCC1 / RFU, ARID1A / Fold change vs veh, ARID1A / RFU, ZNF146 / Fold change vs veh, ZNF146 / RFU, ZNF330 / Fold change vs veh, ZNF330 / RFU, GPN3 / Fold change vs veh, GPN3 / RFU, C9orf123 / Fold change vs veh, C9orf123 / RFU, N4BP2L2 / Fold change vs veh, N4BP2L2 / RFU, ARFIP1 / Fold change vs veh, ARFIP1 / RFU, FAM179B / Fold change vs veh, FAM179B / RFU, BCL10 / Fold change vs veh, BCL10 / RFU, UHRF1BP1L / Fold change vs veh, UHRF1BP1L / RFU, BET1 / Fold change vs veh, BET1 / RFU, CNOT2 / Fold change vs veh, CNOT2 / RFU, ZNF268 / Fold change vs veh, ZNF268 / Fold change vs veh, ZNF507 / RFU, DGCR2 / Fold change vs veh, DGCR2 / RFU, WDSUB1 / Fold change vs veh, WDSUB1 / Fold change vs veh, HSP90B1 /// MIR3652 / RFU, ADSS / Fold change vs veh, ADSS / RFU, GK / Fold change vs veh, GK / RFU, ZNF148 / Fold change vs veh, ZNF148 / RFU, TAF9 / Fold change vs veh, TAF9 / RFU, SLC1A5 / Fold change vs veh, SLC1A5 / RFU, SLMO2 / Fold change vs veh, SLMO2 / RFU, ABCC4 / Fold change vs veh, ABCC4 / RFU, LOC101060439 /// RAP1B / Fold change vs veh, LOC101060439 /// RAP1B / RFU, RFX7 / Fold change vs veh, RFX7 / RFU, GTPBP10 / Fold change vs veh, GTPBP10 / RFU, CNEP1R1 / Fold change vs veh, CNEP1R1 / RFU, BIVM-ERCC5 /// ERCC5 / Fold change vs veh, BIVM-ERCC5 /// ERCC5 / RFU, ILF3 / Fold change vs veh, ILF3 / RFU 11762660_at / Fold change /veh 11762660_at / RFU VCAN (11757783_s_at) / Fold change /veh VCAN (11757783_s_at) / RFU DDX43 (11728927_at) / Fold change /veh DDX43 (11728927_at) / RFU KRT8 (11758188_x_at) / Fold change /veh KRT8 (11758188_x_at) / RFU NKD1 (11759106_at) / Fold change /veh NKD1 (11759106_at) / RFU SRD5A1 (11742802_a_at) / Fold change /veh SRD5A1 (11742802_a_at) / RFU TPSAB1 /// TPSB2 (11721975_s_at) / Fold change /veh TPSAB1 /// TPSB2 (11721975_s_at) / RFU GSTM3 (11746129_a_at) / Fold change /veh GSTM3 (11746129_a_at) / RFU IL23R (11737362_x_at) / Fold change /veh IL23R (11737362_x_at) / RFU TMEM51 (11727254_a_at) / Fold change /veh TMEM51 (11727254_a_at) / RFU PIWIL2 (11732686_x_at) / Fold change /veh PIWIL2 (11732686_x_at) / RFU ORM1 (11744905_x_at) / Fold change /veh ORM1 (11744905_x_at) / RFU CCDC152 (11743942_at) / Fold change /veh CCDC152 (11743942_at) / RFU ECM1 (11717891_a_at) / Fold change /veh ECM1 (11717891_a_at) / RFU IL23R (11748794_a_at) / Fold change /veh IL23R (11748794_a_at) / RFU TNFAIP8L3 (11732012_x_at) / Fold change /veh TNFAIP8L3 (11732012_x_at) / RFU MBOAT4 (11741988_at) / Fold change /veh MBOAT4 (11741988_at) / RFU 11764193_at / Fold change /veh 11764193_at / RFU TMEM53 (11763286_at) / Fold change /veh TMEM53 (11763286_at) / RFU MAGEB2 (11727129_at) / Fold change /veh MAGEB2 (11727129_at) / RFU TMEM200A (11744735_a_at) / Fold change /veh TMEM200A (11744735_a_at) / RFU CCDC152 (11751479_a_at) / Fold change /veh CCDC152 (11751479_a_at) / RFU FAM211A (11726209_a_at) / Fold change /veh FAM211A (11726209_a_at) / RFU RGS16 (11746705_a_at) / Fold change /veh RGS16 (11746705_a_at) / RFU VCAN (11755009_s_at) / Fold change /veh VCAN (11755009_s_at) / RFU RHOB (11743442_s_at) / Fold change /veh RHOB (11743442_s_at) / RFU RGS16 (11720943_a_at) / Fold change /veh RGS16 (11720943_a_at) / RFU RGS16 (11720944_at) / Fold change /veh RGS16 (11720944_at) / RFU, VPS4B / Fold change vs veh, VPS4B / RFU, CREB1 / Fold change vs veh, CREB1 / RFU, DNAJC13 / Fold change vs veh, DNAJC13 / RFU, GNAQ / Fold change vs veh, GNAQ / RFU, CDK5R1 / Fold change vs veh, CDK5R1 / RFU, ZRANB3 / Fold change vs veh, ZRANB3 / RFU, CUL4A / Fold change vs veh, CUL4A / RFU, CCNY / Fold change vs veh, CCNY / RFU, UFL1 / Fold change vs veh, UFL1 / RFU, COG3 / Fold change vs veh, COG3 / RFU, DIAPH2 / Fold change vs veh, DIAPH2 / RFU, SKA2 / Fold change vs veh, SKA2 / RFU, AFF3 / Fold change vs veh, AFF3 / RFU, LMF1 / Fold change vs veh, LMF1 / RFU, IPO11 / Fold change vs veh, IPO11 / RFU, DFFB / Fold change vs veh, DFFB / RFU, FOXP1 / Fold change vs veh, FOXP1 / RFU, CARD8 / Fold change vs veh, CARD8 / RFU, STRN3 / Fold change vs veh, STRN3 / RFU, ADK / Fold change vs veh, ADK / RFU, RASSF2 / Fold change vs veh, RASSF2 / RFU, WIPF1 / Fold change vs veh, WIPF1 / RFU, LARP1B / Fold change vs veh, LARP1B / RFU, RASA1 / Fold change vs veh, RASA1 / RFU, RB1 / Fold change vs veh, RB1 / RFU, PPFIA1 / Fold change vs veh, PPFIA1 / RFU, MAT2A / Fold change vs veh, MAT2A / RFU, CCT5 / Fold change vs veh, CCT5 / RFU, WDR92 / Fold change vs veh, WDR92 / RFU, CUX1 / Fold change vs veh, CUX1 / RFU, TTC7A / Fold change vs veh, TTC7A / RFU, TMEM135 / Fold change vs veh, TMEM135 / RFU, DEPTOR / Fold change vs veh, DEPTOR / RFU, CPM / Fold change vs veh, CPM / RFU, DNAJB6 / Fold change vs veh, DNAJB6 / RFU, CACNA2D3 / Fold change vs veh, CACNA2D3 / RFU, DTX4 / Fold change vs veh, DTX4 / RFU, TFCP2 / Fold change vs veh, TFCP2 / RFU, GMCL1 /// GMCL1P1 / Fold change vs veh, GMCL1 /// GMCL1P1 / RFU, AEBP2 / Fold change vs veh, AEBP2 / RFU, SNHG1 /// SNORD22 /// SNORD25 /// SNORD26 /// SNORD27 /// SNORD28 /// SNORD29 /// SNORD31 / Fold change vs veh, SNHG1 /// SNORD22 /// SNORD25 /// SNORD26 /// SNORD27 /// SNORD28 /// SNORD29 /// SNORD31 / Fold change (Aza/veh), C12orf56 (ProbeSet 11735607_a_at) / Fold change (ACY-1035/veh), C12orf56 (ProbeSet 11735607_a_at) / Fold change (Aza/veh), FGFR1OP (ProbeSet 11751329_s_at) / Fold change (ACY-1035/veh), FGFR1OP (ProbeSet 11751329_s_at) / Fold change (Aza/veh), VPS36 (ProbeSet 11739960_a_at) / Fold change (ACY-1035/veh), VPS36 (ProbeSet 11739960_a_at) / RFU SYPL1 (11715823_x_at) / Fold change /veh SYPL1 (11715823_x_at) / RFU IGFBP7 (11715501_s_at) / Fold change /veh IGFBP7 (11715501_s_at) / RFU REEP3 (11722064_at) / Fold change /veh REEP3 (11722064_at) / RFU IGLL1 (11728026_x_at) / Fold change /veh IGLL1 (11728026_x_at): dose or concentration left out as unconfirmed
# Settings: ProbeSet 11732277_a_at; LIST D
structure (smiles),measurement,value
Nc1ncn([C@@H]2O[C@H](CO)[C@@H](O)[C@H]2O)c(=O)n1 [azacitidine],"RFU, FOXP1",363.93 RFU
